From PubChem BioAssay (NCI) come the findings set out here.

Each structure is given as a SMILES string. Values joined by “and” are separate entries in the source; they are usually repeats but may differ in a detail not shown here. Equal entries are not always repeated.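 The compound was tested at five concentrations on cells cultured in 96-well plates, with a 48-hour exposure period. Here, GI50 denotes the concentration required for 50% inhibition of growth. At the TGI there is no net growth.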

Among the test systems are DLD-1 colon; DMS 273 small cell lung; LXFL 529 NSCLC; RXF-631 renal; SNB-78 CNS; XF 498 CNS; HOP-18 NSCLC; MDA-N; NCI/ADR-RES ovarian; P388/ADR leukemia.
Assay in all cases: NCI tumour cell line growth inhibition, 48 h

`CC1=C(C(=O)Nc2ccc([N+](=O)[O-])cc2)C(c2ccccc2O)C(C(=O)Nc2ccc([N+](=O)[O-])cc2)=C(C)N1`: the TGI in the experiment on DLD-1 colon was 57.8 µM; in the experiment with DMS 273 small cell lung, 47.1 µM; in the experiment with LXFL 529 NSCLC it was 48.7 µM; in the experiment with RXF-631 renal it was 36.6 µM; with SNB-78 CNS it was 91.8 µM; in the experiment on XF 498 CNS, 31.2 µM.

Regarding `Clc1cccc(N2CCN(CCN3CCc4c([nH]c5ccccc45)C3c3cccnc3)CC2)c1` (configuration not stated), the TGI with DLD-1 colon, in the experiment on DMS 273 small cell lung, in the experiment with HOP-18 NSCLC, in the experiment on LXFL 529 NSCLC, in the experiment with MDA-N and in the experiment on NCI/ADR-RES ovarian was above 100 µM each time. In addition, the TGI in the experiment on SNB-78 CNS and in the experiment with XF 498 CNS was above 100 µM throughout.

Regarding `OC(C1CO1)C(O)C1CO1` (configuration not stated), the TGI with DLD-1 colon was above 150 µM; with DMS 273 small cell lung, 76.9 µM; in the experiment with HOP-18 NSCLC, 150 µM; with MDA-N it was 134 µM and 284 µM; in the experiment with NCI/ADR-RES ovarian, 123 µM and 320 µM; with P388/ADR leukemia, 150 µM. The TGI in the experiment on SNB-78 CNS is 150 µM; in the experiment on XF 498 CNS, 133 µM. The GI50 in the experiment with MDA-N was 92.2 µM; with NCI/ADR-RES ovarian, 81 µM.

Regarding `CN(C(=O)C12C3(C(=O)C(C)(C)C)C4C5(C#N)C3C1(C(=O)C(C)(C)C)C5C42C(=O)C(C)(C)C)C(C)(C)C` (configuration not stated), the TGI in the experiment with DLD-1 colon, in the experiment with DMS 273 small cell lung, in the experiment with LXFL 529 NSCLC, in the experiment with RXF-631 renal, in the experiment with SNB-78 CNS and in the experiment on XF 498 CNS was above 50 µM each time.

`O=c1cc(-c2ccccc2)[nH]c2c(Cl)cccc12`: the TGI is above 100 µM in the experiment on DLD-1 colon; above 100 µM with DMS 273 small cell lung; above 100 µM in the experiment with LXFL 529 NSCLC; above 100 µM in the experiment with RXF-631 renal; 96.4 µM in the experiment with XF 498 CNS.

On to `CCCCCCCCC(O)C#CC(N)=O` (configuration not stated), for which the TGI stood at 21.8 µM in the experiment on DLD-1 colon; 20.3 µM in the experiment with DMS 273 small cell lung; 26 µM in the experiment on HOP-18 NSCLC; 23.3 µM with LXFL 529 NSCLC; 29.8 µM in the experiment with RXF-631 renal; 57.5 µM in the experiment with SNB-78 CNS. The compound further yielded a TGI in the experiment with XF 498 CNS of 30.8 µM.

On to `NC(=S)N/N=C/c1ccc(O)cn1`, for which the GI50 in the experiment on DLD-1 colon was 39.6 µM and 31 µM; in the experiment with DMS 273 small cell lung it was 8.83 µM and 5.35 µM; in the experiment on HOP-18 NSCLC it was 21 µM; with NCI/ADR-RES ovarian it was 3.09 µM; with P388/ADR leukemia it was 0.943 µM and 1.5 µM; in the experiment with XF 498 CNS, 15.6 µM. Also, the TGI in the experiment with DLD-1 colon is above 1500 µM; with DMS 273 small cell lung it was 31.1 µM and 37 µM and 16.7 µM; in the experiment with HOP-18 NSCLC, 134 µM and 974 µM; in the experiment with MDA-N it was above 1180 µM; with P388/ADR leukemia, 154 µM and 24.5 µM; in the experiment on XF 498 CNS, 94 µM and 168 µM.

As to `COc1ccc(OC)c(NCC#N)c1`, the TGI in the experiment with DMS 273 small cell lung, in the experiment with HOP-18 NSCLC, with RXF-631 renal and with XF 498 CNS was above 100 µM in each case.

Take `O=C1[C@H]2ON(c3ccccc3)C(c3ccccc3F)[C@H]2C(=O)N1c1ccc(Cc2ccc(N3C(=O)[C@@H]4ON(c5ccccc5)C(c5ccccc5F)[C@@H]4C3=O)cc2)cc1` (some centres not stated): the TGI in the experiment with DLD-1 colon, in the experiment with DMS 273 small cell lung, with HOP-18 NSCLC, with LXFL 529 NSCLC, in the experiment with RXF-631 renal and with SNB-78 CNS was above 100 µM each time. Besides, the TGI with XF 498 CNS is above 100 µM.

Consider `O=C(NCCCCCCNC(=O)n1cc(F)c(=O)[nH]c1=O)NCCCOCCOCCOCCOCCOCCOCCOCCOCCOCCOCCOCCOCCOCCOCCOCCOCCOCCOCCOCCOCCOCCCNC(=O)C(O)C(O)C(OC1OC(CO)C(O)C(O)C1O)C(O)CO` (configuration not stated), for which the TGI in the experiment with DLD-1 colon, with DMS 273 small cell lung, with HOP-18 NSCLC, in the experiment with MDA-N, in the experiment with NCI/ADR-RES ovarian and with P388/ADR leukemia was above 100 µM throughout. The TGI with SNB-78 CNS and in the experiment with XF 498 CNS was above 100 µM each time.

For the compound `COC1=C2C[C@H](O)C(C)C[C@@]2(OC)OC1=O` (some centres not stated), the TGI in the experiment with DLD-1 colon, in the experiment with DMS 273 small cell lung, in the experiment with LXFL 529 NSCLC, in the experiment with RXF-631 renal, with SNB-78 CNS and in the experiment with XF 498 CNS was above 100 µM in each case.

As to `CCOC(=O)NC1=C(N2CC2)C(=O)C(NC(=O)OCC)=C(N2CC2)C1=O`, the GI50 in the experiment on DLD-1 colon was 8.56 µM; with DMS 273 small cell lung, 1.01 µM; with HOP-18 NSCLC, 8.57 µM; in the experiment with LXFL 529 NSCLC, 4.34 µM; in the experiment with NCI/ADR-RES ovarian it was 8.44 µM; in the experiment on RXF-631 renal, 6.73 µM and 14.4 µM. Moreover, the GI50 in the experiment on SNB-78 CNS is 9.36 µM. In addition, the TGI in the experiment with DLD-1 colon is 38 µM and 78.9 µM; in the experiment on DMS 273 small cell lung, 20.5 µM and 41.4 µM; in the experiment with HOP-18 NSCLC, 24.4 µM and 49.9 µM; in the experiment with LXFL 529 NSCLC, 15 µM and 9.51 µM; in the experiment with MDA-N it was 5.41 µM; in the experiment on NCI/ADR-RES ovarian it was 25 µM and 16.8 µM. Moreover, the TGI was 17.6 µM in the experiment with P388/ADR leukemia; 30.3 µM and 54.6 µM in the experiment on RXF-631 renal; 24.2 µM and 28.5 µM in the experiment on SNB-78 CNS; 8.75 µM with XF 498 CNS.

As for `C/C(CC(=O)Nc1ccc(Cl)cc1)=N\NC(=O)C[n+]1ccccc1`, the TGI in the experiment on DLD-1 colon, in the experiment on DMS 273 small cell lung, in the experiment on LXFL 529 NSCLC, in the experiment with RXF-631 renal, with SNB-78 CNS and in the experiment on XF 498 CNS was above 100 µM throughout.

Take `CSc1nc(SC)c2c(C(N)=S)[nH]nc2n1`: the TGI in the experiment on DLD-1 colon was above 100 µM; in the experiment on DMS 273 small cell lung it was 98.3 µM; in the experiment with LXFL 529 NSCLC, above 100 µM; in the experiment on RXF-631 renal, 93.7 µM; in the experiment with SNB-78 CNS, 85.8 µM.

As to `CC(C)(O)[C@@H]1CC[C@@]2(C)CCC[C@H](O)[C@H]2C1`, the TGI with DLD-1 colon, in the experiment on DMS 273 small cell lung, in the experiment on HOP-18 NSCLC, in the experiment with LXFL 529 NSCLC, with RXF-631 renal and in the experiment on XF 498 CNS was above 100 µM each time.

As to `CC(=O)OC1CC[C@@]2(C)C(CC[C@]3(C)C2CC=C2[C@@H]4CC(C)(C)CCC4(C)CCC23C)[C@@]1(C)C(=O)O` (some centres not stated), the TGI with DLD-1 colon came to 29.3 µM; in the experiment on DMS 273 small cell lung, 55.5 µM; in the experiment with HOP-18 NSCLC it was 43.7 µM; with LXFL 529 NSCLC, 32.9 µM; in the experiment with MDA-N, 64.8 µM; in the experiment with RXF-631 renal it was 44.7 µM. Also, the results for the TGI in the experiment on SNB-78 CNS and in the experiment with XF 498 CNS were 48.8 µM and 50.9 µM, respectively.

Take `CC(C)[NH-].CC(C)[NH-].O.O.[Cl][Pt+2][Cl]`: the GI50 in the experiment on DLD-1 colon is 45.1 µM; in the experiment with HOP-18 NSCLC it was 60.5 µM; in the experiment on MDA-N it was 17.4 µM; in the experiment on NCI/ADR-RES ovarian, 60.9 µM; in the experiment on P388/ADR leukemia, 8.11 µM; with SNB-78 CNS, 54.5 µM. Also, in the experiment on XF 498 CNS, the GI50 was 16 µM. The TGI with DLD-1 colon came out at 238 µM; with HOP-18 NSCLC it was 337 µM; in the experiment on MDA-N, 106 µM; in the experiment on NCI/ADR-RES ovarian, 343 µM; in the experiment with P388/ADR leukemia, 59.9 µM; in the experiment with SNB-78 CNS it was 375 µM. Also, the TGI with XF 498 CNS stood at 51.6 µM.

For the compound `CCC(=O)C(C)C(=O)C(=O)C(=O)OC` (configuration not stated), the TGI in the experiment with DLD-1 colon, with DMS 273 small cell lung, with HOP-18 NSCLC, in the experiment with LXFL 529 NSCLC, in the experiment on RXF-631 renal and with SNB-78 CNS was above 100 µM in each case. Moreover, in the experiment on XF 498 CNS, the TGI is above 100 µM.
